Measured values published in patent publication US10183027B2, “Lanthanide toolbox for multi-modal, non-invasive tumor specific theranostic prodrugs” (priority 2016, dated 2019).
Where “and” joins values, the source holds several entries; their conditions need not be identical. Equal entries are not always repeated.

Columns and labels:
[1] = T1 weighted in vivo 7T MRI imaging and bio-distribution; set-up: species or system BALB/c mice
Protocol: In vivo 7T MRI measurements of the disclosed compounds in normal mice were conducted. The images were acquired at various time points after solutions of commercial GdDOTA complex (DOTAREM), GdL and PtGdL were injected. […] GdL was immediately captured by the liver, spleen and the kidneys (FIGS. 13A and 14A). […] In comparison to GdDOTA, GdL presents a similar pattern of biodistribution in the kidneys but a slower clearance rate in the liver (0.002 vs 0.016 enh/min). However, PtGdL presents a delayed capture, longer remanence and clearance compared to GdL.
All animal experiments were performed in accordance with the institutional animal protocol guidelines in place at Paris Descartes University, (saisine CEEA34.JS.142.1) and approved by the Institute's Animal Research Committee.
Wild-type female 8 weeks BALB/c mice (Elevage Janvier, Le Genest-St-Isle, France) were anaesthetized with isoflurane (1.5%, with air/O2 0.5/0.25 L·min^−1) inhalation and placed in a dedicated contention cradle. 300 μL of Gadolinium complexes in 0.9% physiological serum were intravenously injected via the tail vein while the mouse was in the scanner. For reproducibility studies, 3 mice per group were injected (n=3).
The scanning protocol was developed using Bruker Paravision 5.1 software. DCE Dynamic contrast Enhanced sequence was recorded using Intragate Flash multislices for motion free artifacts T1 weighted sequence (TR=100 ms, TE=4 ms, alpha=80°). The final images have a spatial resolution of […] in plane. The total scan time was in the order of 3 min 14 s per images. The dynamic follow-up is measured during in a scan time of 40 minutes.
To study the biodistribution of each complex, several regions of interest (ROI) were monitored: the liver, muscle, spleen, kidney, and vessels. The corresponding MRI intensity related to the amount of the Gd complex contrast agents was plotted versus time to visualize the uptake and clearance of each complex into the organs. Comparison with commercial GdDOTA (DOTAREM, Guerbet, France) was also performed at the corresponding concentration of Gd (10 mM).

HeLa cells [2] = assay: MTT dark cytotoxicity in HeLa cells (PtGdL study); assay type: cell-based, human; conditions: 24 hours
Protocol: (§1) Human cervical cancer HeLa cells were grown in Dulbecco's Modified Eagle Medium (DMEM). Human lung diploid fibroblasts-MRC-5 and prostate stromal-WPMY-1 cells were obtained from the cell resource center of Shanghai Institute of Biological Sciences, Chinese Academy of Sciences. MRC-5 and WPMY-1 are growth in MEM (GIBCO 41500034) and supplemented with 10% (v/v) fetal bovine serum, 1% penicillin and streptomycin at 37° C. and 5% CO2. […] After that, formazan was fully dissolved in DMSO through oscillation. Finally, the absorbance of solution was measured with Biotek Power wave xsMicroplate Reader at the wavelength of 570 nm and 690 nm.

WPMY-1 cells = assay: MTT dark cytotoxicity in WPMY-1 cells (PtGdL study); assay type: cell-based, human; conditions: 24 hours
Protocol: as §1

HeLa cells [3] = assay: Two-photon induced activation, in vitro imaging and photo-cytotoxicity of PtGdL; assay type: cell-based, human
Protocol: The cells were incubated with PtGdL (1, 2, 5, 10 μM) for 12 hours. The complexes (cell impermeable and dissolved in the medium) were washed out with PBS buffer. The cells with complexes were placed in the tissue culture chamber (5% CO2, 37° C.) inside the two-photon confocal microscope. In vitro images were captured by using the Leica SP8 (upright configuration) confocal microscope which equipped with femto-second laser (wavelength: 700 to 1000 nm) and 40×/60× oil immersion objective. […]

[4] = Photo-induced dissociation of the cisplatin unit in tris buffer monitored by emission; assay type: physicochemical; conditions: tris buffer pH 7.4, UV 365 nm, 5 mW
Protocol: One of the key issues is the photodissociation level of the Pt moiety from the compounds described herein. The triplet states of the chromophores before and after photo-release the drug or upon binding with αvβ3 isoform were measured. Based on the synthetic protocols described herein, La (lanthanum) and Gd (gadolinium) analogs can be synthesized to measure the triplet states of the chromophores as well. The measurements of the triplet states of these chromophores phosphorescence and their phosphorescence lifetime was undertaken at low temperature (77K). The photodissociation kinetics of PtEuL were investigated by monitoring the emission spectrum with different irradiation times of UVA/NIR (light dosage=4 J cm^−2). The plot of responsive and initial emission intensity at 615 nm (^5D0→^7F2) vs time will be fitted in the exponential growth and decay equation to obtain the pseudo-first order rate constant.
The linear light induced dissociation of PtGdL in tris buffer (20 mM Tris base, 50 mM NaCl, pH 7.4) was monitored by determination of the emission intensity of solution of PtGdL in tris buffer with different light dosage of 365 nm UV light. In general, 3 mL of the solution of PtGdL (3 μM in tris buffer) in a 3.5 mL quartz cuvette was irradiated with a 365 nm UV lamp (5 mW) with stirring. The emission spectra of the solution were recorded at different time points (0, 1, 3, 5, 7, 10, 15, 20, 30, 45, 60, 75 and 90 min).
(Ln=Eu or Gd). The solution-state electronic adsorption and emission spectra of all the complexes and the ligand were recorded at 298 K (FIGS. 28A-28D). The EuL complex is the product of PtEuL after photo-dissociation and was used to monitor the photo-dissociation of [Pt—(NH3)2Cl]^+ from PtEuL. […] The photo-dissociation of PtEuL (3 μM in Tris-buffer, pH=7.4, 50 mM NaCl) was monitored by the variation of the Eu emission (λem=615 nm, ^5D0→^7F2) with the irradiation time. […] The pseudo-first order rate constant k was determined to be 0.53 min^−1 under these experimental conditions (FIG. 28D).

[5] = Dynamic light scattering of PtGdL solution; assay type: physicochemical; conditions: aqueous solution, 25.0° C.
Protocol: Dynamic Light Scattering (DLS) to investigate the presence of aggregates in a PtGdL solution was performed in Mavernm Zetasizer Nano-S equipment, at 25.0° C.

[6] = Photo-induced dissociation and dark stability of RuEuL in aqueous solution; assay type: physicochemical
Protocol: The photo-induced dissociation of RuEuL was simultaneously studied by emission (FIG. 21) spectroscopy, and by HPLC (FIG. 22) of the RuEuL solution (5 μM in H2O) after continuous irradiation with visible light (λirr.=488 nm, 1 W) during various times (1-8 min). After irradiation, turned-on europium emission is observed. This observation can be explained by the existence of dissociative states on Ru(II), which were proposed by Saddler et al. The photo-dissociation products, EuL and [Ru(OH)(bpy)2(H2O)]^+, have been further qualitatively identified by HPLC (FIG. 22). Before light irradiation, only one HPLC peak corresponding to RuEuL (retention time, R=11.3 min) is observed. After irradiation, this peak disappears, and two peaks of dissociated photoproducts appear.
In order to obtain the exact amount of the photo-released ruthenium(II) moiety for biomedical purpose and to evaluate drug release in real time, quantitative analysis is required. It can be achieved by LC/ESI-MS for simultaneous detection of the photo-products EuL and [Ru(OH)(bpy)2(H2O)]^+. Moreover, the switchable europium(III) emission can be considered as a real-time signaling technique for the released anticancer Ru(II) complexes and can also be exploited quantitatively. […]

Plasmid DNA [7] = assay: Agarose gel electrophoresis of plasmid DNA with RuEuL / EuL; assay type: biochemical; conditions: 20 μM
Protocol: Furthermore, the interaction of photo-activated RuEuL with DNA was examined by agarose gel electrophoresis (FIG. 24). Plasmid DNA (22.5 μg/mL in Tris/EDTA (TE) buffer) was incubated with the compounds (20 μM), irradiated by 488 nm light (dose 50 J m^−2) or not (control) and then subjected to 1% agarose gel electrophoresis. The separated DNA was stained with GelRed Nucleic Acid Stain (BIOTIUM) and imaged using Tanon 1600 Gel Imaging System (Tanon Science & Technology Co., Ltd).

HeLa cells [8] = assay: Dark and photo cytotoxicity of RuEuL against HeLa cells; assay type: cell-based, human; conditions: HeLa
Protocol: To determine the potential of RuEuL as a photo-controlled prodrug cell cytotoxicity studies were performed on human cervical cancer (HeLa) cells, and EuL as control (FIGS. 25A and 25B). Cells were incubated 6 hours in the dark before irradiation (488 nm, 1 J); dark controls were run in parallel.

HeLa cells [9] = assay: Confocal microscopy of light-induced cytotoxicity of RuEuL; assay type: cell-based, human; conditions: 50 μM RuEuL or 10 μM PtEuL, 6 hours, 7 mW
Description: The light-induced cytotoxicity of RuEuL towards HeLa cells was also investigated by confocal microscopy (FIG. 26B) with the PtEuL complex tested under identical conditions for comparison. […] In cell culture studies, red Eu(III) emission from RuEuL was observed after 15-min irradiation. (FIG. 26A) The emission intensity increased with longer irradiation time because more excitation energy induced the dissociation of more Ru(II) moieties from the parent molecules, and the resulting EuL units generated stronger light emission. […] PtEuL is photo-activated upon ultraviolet A irradiation (λ=365 nm). However, UVA irradiation could cause severe adverse effects on human cells.

Plasmid DNA [10] = assay: Agarose gel electrophoresis of plasmid DNA after UVA irradiation (PtEuL); assay type: biochemical; conditions: 20 μM, UVA light dose 50 J m^−2
Description: The DNA gel images were obtained using GelRed Nucleic Acid Stain (BIOTIUM).
Direct binding of PtEuL with DNA in dark were studied by circular dichroism (CD). […] The interaction of photo-activated PtEuL with DNA was examined by agarose gel electrophoresis (FIG. 29B). After UVA irradiation with PtEuL, conversion of the supercoiled conformer of the plasmid DNA to its open-circular conformer, which indicates DNA nicking (single strand break) and linear conformer, which indicates double strand break, is clearly seen.

O=C([O-])CN1CCN(CC(=O)[O-])CCN(CC(=O)[O-])CCN(CC(=O)[O-])CC1.[Gd+3] [GdDOTA, reference compound]
clearance rate in the liver ([1]; mice, i.v. tail vein): 0.016 enh/min

O.O=C([O-])CN1CCN(CC(=O)[O-])CCN(Cc2cc(C#Cc3ccc(NC(=O)c4ccncc4)cc3)ccn2)CCN(CC(=O)[O-])CC1.[Gd+3] [GdL]
IC50 (HeLa cells [2]): > 200 µM
IC50 (WPMY-1 cells): > 200 µM
cell death, control under the same experimental conditions (HeLa cells [3]; with 730 nm laser irradiation): no significant cell death
decrease of signal enhancement ([1]; 4 hours after injection): 90%
clearance rate in the liver ([1]; mice, i.v. tail vein): 0.002 enh/min

O.O=[N+]([O-])[O-].[Gd+3].[NH3+][Pt-2]([NH3+])([Cl])[n+]1ccc(C(=O)Nc2ccc(C#Cc3ccnc(CN4CCN(CC(=O)[O-])CCN(CC(=O)[O-])CCN(CC(=O)[O-])CC4)c3)cc2)cc1 [PtGdL]
IC50 (HeLa cells [2]): ~23.6 µM and ~25 µM
IC50 (WPMY-1 cells): 43.9 ± 1.1 µM
dosage concentration at which dramatic cell death can be observed (HeLa cells [3]; 730 nm laser excitation for 30 min): less than 5 μM
emission and cell death absent exposure to laser irradiation (HeLa cells [3]; no laser irradiation): no significant emission and/or cell death
pseudo-first order rate constant k for the dissociation of the cisplatin unit [4]: 0.051 min⁻¹
PDI (DLS) [5]: 0.156
size of aggregates in solution (DLS) ([5]; single peak): 672±24 nm
change of signal enhancement ([1]; after 24 hours): did not change greatly
remanence time in renal cortex ([1]; mice, i.v. tail vein): 4 to 18 h
delay in capture, depending on the tissue of interest ([1]; mice, liver, spleen, kidneys): 6 to 9 min

O.O=C([O-])CN1CCN(CC(=O)[O-])CCN(Cc2cc(C#Cc3ccc(NC(=O)c4cc[n+]([Ru-4]56([Cl])([n+]7ccccc7-c7cccc[n+]75)[n+]5ccccc5-c5cccc[n+]56)cc4)cc3)ccn2)CCN(CC(=O)[O-])CC1.[Cl-].[Eu+3] [RuEuL]
pseudo-first order rate constant k of photo-dissociation ([6]; 5 μM in H2O, visible laser irradiation, 1 W): 0.43 min⁻¹
stability in the dark ([6]; dark, 37° C., 24 hours): stable
migration of DNA with light excitation (Plasmid DNA [7]; 488 nm light, dose 50 J m^−2): delayed
migration of DNA without irradiation (Plasmid DNA [7]; control lanes): left the DNA intact and showed normal migration
IC50 (HeLa cells [8]; 6 hours in the dark then irradiation (488 nm, 1 J), read-out: light IC50): 32.5 µM
IC50 (HeLa cells [8]; dark, read-out: dark IC50): > 200 µM
cell damage and red emission on 488 nm laser irradiation (HeLa cells [9]): cell lysis was detected after 15-min irradiation

N.N.[Cl][Pt][Cl] [cisplatin, reference compound]
DNA photocleavage activity (Plasmid DNA [10]): less significantly
